{"source": "paper PMC6981960", "about": "(2019)", "key": {"[1]": {"test_system": "NP7 (DNA, aptamer) ATGCGGATCCCGCGCGGCCGGCCAGTGCGCGAAGCTTGCGC", "experiment": "AuNP colorimetric aggregation assay", "details": "NaCl added to aggregate AuNPs (10 μL, printed 850 nM), aptamer 4 μM"}, "[2]": {"test_system": "NP7 (DNA, aptamer) ATGCGGATCCCGCGCGGCCGGCCAGTGCGCGAAGCTTGCGC", "experiment": "circular dichroism", "details": "137 mM NaCl, 2.7 mM KCl; PBS pH 7.4, 25 °C; aptamer 2 μM; 4-n-NP 0, 100, 1000 nM; qualitative change near 250 nm"}}, "data": [{"molecule": "CC(C)(c1ccc(O)cc1)c1ccc(O)cc1", "values": [{"measurement": "binding", "setting": "[1]; bisphenol A same amount as nonylphenol (200 nM stated)", "result": "weak"}]}, {"molecule": "CC1(C)S[C@@H]2[C@H](NC(=O)Cc3ccccc3)C(=O)N2[C@H]1C(=O)O", "values": [{"measurement": "binding", "setting": "[1]; penicillin G same amount as nonylphenol (200 nM stated)", "result": "no"}]}, {"molecule": "CCCCC(CC)COC(=O)c1ccccc1C(=O)OCC(CC)CCCC", "note": "(centres unmarked)", "values": [{"measurement": "binding", "setting": "[1]; DEHP same amount as nonylphenol (200 nM stated)", "result": "no"}]}, {"molecule": "CCCCCCCCCc1ccc(O)cc1", "values": [{"measurement": "binding", "setting": "[2]", "result": "yes"}]}, {"molecule": "Oc1ccccc1", "values": [{"measurement": "binding", "setting": "[1]; phenol same amount as nonylphenol (200 nM stated)", "result": "no"}]}]}
